# How the values were obtained:
# H358 (KRAS G12C) = assay: Tumor cell proliferation inhibition assay (CellTiter-Glo), H358; format: cell-based, Human; conditions: 10% fetal bovine serum
# Method: (§1) The H358, H23 or MIA-Paca2 cells were digested, centrifuged and resuspended, and the cell density was measured with a Scepter automatic cell counter. Cells were diluted to a solution containing 44,000 cells per milliliter, then added to a 96-well culture plate at 90 μL per well. The 96-well plate was placed in a 5% CO2 incubator at 37° C., and after the cells were cultured for 24 hours, different concentrations of the compounds to be tested were added. Cells were incubated with compounds in the presence of 10% fetal bovine serum for 72 hours. The inhibition of cell growth was assessed by measuring ATP levels by using the CellTiter-Glo Luminescent Cell Viability Assay Kit (details in manufacturer's instructions). In brief, 30 μL of CellTiter-Glo reagent was added to each well and the plate was shaken for 10 minutes to induce cell lysis, then the fluorescent signal was detected and recorded with a Fluoroskan Ascent FL (Thermo). Maximum signal values were obtained from cells treated with DMSO for 72 hours. Minimum signal values were obtained with medium only (zero cell number). Inhibition rate %=(maximum signal value-compound signal value)/(maximum signal value-minimum signal value)×100%. Data were processed by using Graphpad prism5 software. IC50 values were calculated using a sigmoidal dose-response curve.
# MIA-Paca2 (KRAS G12C) = assay: Tumor cell proliferation inhibition assay (CellTiter-Glo), MIA-Paca2; format: cell-based, Human; conditions: 10% fetal bovine serum
# Method: as §1
# [1] = Pharmacokinetic (PK) experiment in rats by gavage; format: in vivo; conditions: rat, plasma, po, male SD rats, 20 mg/kg; for AUC(0-t): read-out: AUC0-24
# Method: Male SD rats, weighing 180-250 g, were fasted overnight before the test and stomach administrated with the test compound at 20 mg/kg. 15 minutes, 30 minutes, and 1, 2, 4, 6, 8, and 24 hours after administration, blood was taken from the end of the tail of the fracture, about 0.3 mL per time point, then placed in a centrifuge tube containing K2-EDTA, and centrifuged (2000 g, 10 min, at 4° C.). Plasma was collected and stored in an ultra-low temperature freezer at −80° C. 50 μL of plasma samples were vortexed with 135 μL of acetonitrile (containing 1 μg/mL internal standard) for protein precipitation and centrifuged, and the supernatant was collected for LC-MS/MS analysis.
# After the rats oral administrated with the Pyridopyrimidinone compounds provided by the present disclosure, the absorption is good, and the blood exposure is relatively high. […] Cmax refers to the maximum plasma concentration, T1/2 is the half-life, AUC0-24 refers to the area under the 0-24 hour time-concentration curve, and AUC0-inf refers to the area under the 0-Inf time-concentration curve.
SMILES,"IC50 (H358 (KRAS G12C); Homo sapiens, NCI-H358, 72 h)","IC50 (MIA-Paca2 (KRAS G12C); Homo sapiens, MIA PaCa-2, 72 h)",further results
"C=CC(=O)N1CCN(c2nc(=O)n(-c3c(C)ccnc3C(C)C)c3nc(-c4c(F)ccc5ccoc45)c(F)cc23)C[C@@H]1CC#N (atropisomer, axis not shown; (M)) [Compound 100-1, 2-((2S)-1-acryloyl-4-(6-fluoro-7-(6-fluorobenzofuran-7-yl)-1(M)-(2-isopropyl-4-methylpyridin-3-yl)-2-oxo-1,2-dihydropyrido[2,3-d]pyrimidin-4-yl)piperazin-2-yl)acetonitrile]",100 to 500 nM,–,–
"C=CC(=O)N1C[C@H](C)N(c2nc(=O)n(-c3c(C)ccnc3C(C)C)c3nc(-c4c(F)ccc5ccoc45)c(F)cc23)C[C@H]1C (atropisomer, axis not shown; (P)) [Compound 89-2, 4-((2S,5R)-4-acryloyl-2,5-dimethylpiperazin-1-yl)-6-fluoro-7-(6-fluorobenzofuran-7-yl)-1(P)-(2-isopropyl-4-methylpyridin-3-yl)pyrido[2,3-d]pyrimidin-2(1H)-one]",–,–,IC50 (H358 (KRAS G12C); 72 hours): 11 nM; IC50 (MIA-Paca2 (KRAS G12C); 72 hours): > 500 nM
"C=CC(=O)N1CCN(c2nc(=O)n(-c3c(C)ccnc3C(C)C)c3nc(-c4c(F)ccc5c4OCO5)c(F)cc23)[C@@H](C)C1 [Compound 69, 4-((S)-4-acryloyl-2-methylpiperazin-1-yl)-6-fluoro-7-(5-fluorobenzo[d][1,3]dioxol-4-yl)-1-(2-isopropyl-4-methylpyridin-3-yl)pyrido[2,3-d]pyrimidin-2(1H)-one]",10 to 50 nM,50 to 100 nM,AUC(0-inf) [1]: 9930 ng·h/mL; Cmax [1]: 4390 ng/mL; Tmax [1]: 0.83 h; half-life [1]: 5.38 h; AUC(0-t) [1]: 9920 ng·h/mL
"C=CC(=O)N1CCN(c2nc(=O)n(-c3c(C)ccnc3C(C)C)c3nc(-c4c(F)ccc5c4OCCO5)c(F)cc23)[C@@H](C)C1 [Compound 72, 4-((S)-4-acryloyl-2-methylpiperazin-1-yl)-6-fluoro-7-(6-fluoro-2,3-dihydrobenzo[b][1,4]dioxin-5-yl)-1-(2-isopropyl-4-methylpyridin-3-yl)pyrido[2,3-d]pyrimidin-2(1H)-one]",10 to 50 nM,10 to 50 nM,–
"C=CC(=O)N1CCN(c2nc(=O)n(-c3c(C)ccnc3C(C)C)c3nc(-c4cccc5cc[nH]c45)c(F)cc23)[C@@H](C)C1 [Compound 82, (S)-4-(4-acryloyl-2-methylpiperazin-1-yl)-6-fluoro-7-(1H-indol-7-yl)-1-(2-isopropyl-4-methylpyridin-3-yl)pyrido[2,3-d]pyrimidin-2(1H)-one]",1 nM,> 500 nM,–
"C=CC(=O)N1CCN(c2nc(=O)n(-c3c(C)cccc3C(C)C)c3nc(-c4c(F)ccc5ccoc45)c(F)cc23)[C@@H](C)C1 [Compound 106, 4-((S)-4-acryloyl-2-methylpiperazin-1-yl)-6-fluoro-7-(6-fluorobenzofuran-7-yl)-1-(2-isopropyl-6-methylphenyl)pyrido[2,3-d]pyrimidin-2(1H)-one]",100 to 500 nM,100 to 500 nM,–
"C=CC(=O)N1CCN(c2nc(=O)n(-c3ccccc3C(C)C)c3nc(-c4c(F)ccc5ccoc45)c(F)cc23)[C@@H](C)C1 [Compound 120, 4-((S)-4-acryloyl-2-methylpiperazin-1-yl)-6-fluoro-7-(6-fluorobenzofuran-7-yl)-1-(2-isopropylphenyl)pyrido[2,3-d]pyrimidin-2(1H)-one]",11 nM,100 to 500 nM,–

# More lines, main results first:
"IC50 (H358 (KRAS G12C); Homo sapiens, NCI-H358, 72 h)","IC50 (MIA-Paca2 (KRAS G12C); Homo sapiens, MIA PaCa-2, 72 h)",SMILES,further results
10 to 50 nM,–,"C=CC(=O)N1CCN(c2nc(=O)n(-c3c(C)ccnc3C(C)C)c3nc(-c4c(F)ccc5ccoc45)c(Cl)cc23)C[C@@H]1CC#N (atropisomer, axis not shown; (M)) [Compound 101-1, 2-((2S)-1-acryloyl-4-(6-chloro-7-(6-fluorobenzofuran-7-yl)-1(M)-(2-isopropyl-4-methylpyridin-3-yl)-2-oxo-1,2-dihydropyrido[2,3-d]pyrimidin-4-yl)piperazin-2-yl)acetonitrile]",–
< 10 nM,10 to 50 nM,"C=CC(=O)N1CCN(c2nc(=O)n(-c3c(C)ccnc3C(C)C)c3nc(-c4c(F)ccc5c4OCCO5)c(Cl)cc23)[C@@H](C)C1 [Compound 98, 4-((S)-4-acryloyl-2-methylpiperazin-1-yl)-6-chloro-7-(6-fluoro-2,3-dihydrobenzo[b][1,4]dioxin-5-yl)-1-(2-isopropyl-4-methylpyridin-3-yl)pyrido[2,3-d]pyrimidin-2(1H)-one]",–
< 10 nM,10 to 50 nM,"C=CC(=O)N1CCN(c2nc(=O)n(-c3c(C)ccnc3C(C)C)c3nc(-c4c(F)cc(F)c5ccoc45)c(Cl)cc23)[C@@H](C)C1 [Compound 102, 4-((S)-4-acryloyl-2-methylpiperazin-1-yl)-6-chloro-7-(4,6-difluorobenzofuran-7-yl)-1-(2-isopropyl-4-methylpyridin-3-yl)pyrido[2,3-d]pyrimidin-2(1H)-one]",AUC(0-inf) [1]: 14200 ng·h/mL; Cmax [1]: 3720 ng/mL; Tmax [1]: 1 h; half-life [1]: 2.85 h; AUC(0-t) [1]: 14200 ng·h/mL
< 10 nM,10 to 50 nM,"C=CC(=O)N1CCN(c2nc(=O)n(-c3c(C)ccnc3C(C)C)c3nc(-c4c(Cl)ccc5ccoc45)c(Cl)cc23)[C@@H](C)C1 [Compound 105, 4-((S)-4-acryloyl-2-methylpiperazin-1-yl)-6-chloro-7-(6-chlorobenzofuran-7-yl)-1-(2-isopropyl-4-methylpyridin-3-yl)pyrido[2,3-d]pyrimidin-2(1H)-one]",–
100 to 500 nM,> 500 nM,"C=CC(=O)N1CCN(c2nc(=O)n(-c3c(C)ccnc3C(C)C)c3nc(-c4cccc5ccoc45)c(F)cc23)[C@@H](C)C1 [Compound 107, (S)-4-(4-acryloyl-2-methylpiperazin-1-yl)-7-(benzofuran-7-yl)-6-fluoro-1-(2-isopropyl-4-methylpyridin-3-yl)pyrido[2,3-d]pyrimidin-2(1H)-one]",–
10 to 50 nM,–,"C=CC(=O)N1CCN(c2nc(=O)n(-c3c(C)ccnc3C(C)C)c3nc(-c4c(F)c(O)cc5ccoc45)c(Cl)cc23)[C@@H](C)C1 [Compound 110, 4-((S)-4-acryloyl-2-methylpiperazin-1-yl)-6-chloro-7-(6-fluoro-5-hydroxybenzofuran-7-yl)-1-(2-isopropyl-4-methylpyridin-3-yl)pyrido[2,3-d]pyrimidin-2(1H)-one]",melting point: 92 to 104 °C
50 to 100 nM,–,"C=CC(=O)N1CCN(c2nc(=O)n(-c3c(C)ccnc3C(C)C)c3nc(-c4c(F)c(OC)cc5ccoc45)c(Cl)cc23)[C@@H](C)C1 [Compound 111, 4-((S)-4-acryloyl-2-methylpiperazin-1-yl)-6-chloro-7-(6-fluoro-5-methoxybenzofuran-7-yl)-1-(2-isopropyl-4-methylpyridin-3-yl)pyrido[2,3-d]pyrimidin-2(1H)-one]",melting point: 101 to 113 °C
10 to 50 nM,50 to 100 nM,"C=CC(=O)N1CCN(c2nc(=O)n(-c3c(C)ccnc3C(C)C)c3nc(-c4c(Cl)ccc5ccoc45)c(F)cc23)[C@@H](C)C1 [Compound 112, 4-((S)-4-acryloyl-2-methylpiperazin-1-yl)-7-(6-chlorobenzofuran-7-yl)-6-fluoro-1-(2-isopropyl-4-methylpyridin-3-yl)pyrido[2,3-d]pyrimidin-2(1H)-one]",–
10 to 50 nM,10 to 50 nM,"C=CC(=O)N1CCN(c2nc(=O)n(-c3c(C(C)C)ccnc3C(C)C)c3nc(-c4c(F)ccc5ccoc45)c(F)cc23)[C@@H](C)C1 [Compound 121, 4-((S)-4-acryloyl-2-methylpiperazin-1-yl)-1-(2,4-diisopropylpyridin-3-yl)-6-fluoro-7-(6-fluorobenzofuran-7-yl)pyrido[2,3-d]pyrimidin-2(1H)-one]",–
